Entries after “also recorded” stand apart in the source; their conditions may differ.
Target: T1, TLR7 (Mus musculus, UniProt P58681)
T1 construct: endogenous in cells; host or cells: RAW 264.7
T1 sequence (P58681 27-1050): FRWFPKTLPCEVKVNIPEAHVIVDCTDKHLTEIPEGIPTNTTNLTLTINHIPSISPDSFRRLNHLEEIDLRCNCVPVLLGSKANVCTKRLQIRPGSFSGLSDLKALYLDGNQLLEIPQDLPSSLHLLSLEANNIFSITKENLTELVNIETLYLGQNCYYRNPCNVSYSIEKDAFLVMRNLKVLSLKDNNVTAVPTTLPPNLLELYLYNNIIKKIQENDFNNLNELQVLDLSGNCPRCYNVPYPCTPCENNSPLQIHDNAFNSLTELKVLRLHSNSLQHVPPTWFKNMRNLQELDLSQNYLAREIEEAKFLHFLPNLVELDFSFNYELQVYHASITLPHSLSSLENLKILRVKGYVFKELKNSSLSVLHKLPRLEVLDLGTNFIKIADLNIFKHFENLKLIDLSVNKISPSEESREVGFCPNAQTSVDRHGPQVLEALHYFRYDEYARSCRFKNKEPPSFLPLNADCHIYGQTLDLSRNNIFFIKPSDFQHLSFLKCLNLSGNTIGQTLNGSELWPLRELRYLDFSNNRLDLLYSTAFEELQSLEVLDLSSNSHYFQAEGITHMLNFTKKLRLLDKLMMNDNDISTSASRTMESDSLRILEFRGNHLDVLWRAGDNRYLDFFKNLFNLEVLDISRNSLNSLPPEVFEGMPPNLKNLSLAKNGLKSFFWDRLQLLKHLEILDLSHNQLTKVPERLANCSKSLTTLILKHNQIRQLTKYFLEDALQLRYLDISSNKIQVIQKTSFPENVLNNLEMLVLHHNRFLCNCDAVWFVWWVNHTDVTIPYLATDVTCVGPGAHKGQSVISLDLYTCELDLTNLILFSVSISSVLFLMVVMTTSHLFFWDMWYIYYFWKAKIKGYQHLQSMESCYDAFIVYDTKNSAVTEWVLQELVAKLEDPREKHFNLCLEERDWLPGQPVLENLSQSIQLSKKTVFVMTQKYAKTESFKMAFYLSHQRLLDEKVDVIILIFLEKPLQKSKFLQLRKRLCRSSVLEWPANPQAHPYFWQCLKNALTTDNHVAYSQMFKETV
Test: TNF-α secretion ELISA after TLR7 agonist imiquimod (IMQ) in RAW 264.7 cells
Type: cell-based
Settings: for inhibitory activity against TLR7 (level of TNF-α secretion): SK21 to SK82 at 0.5 μM or 2 μM, Imiquimod 1 μg/ml; for inhibitory activity against TLR7 activation (TNF-α secretion): SK01 and structural derivatives, inhibitor 1 h, then IMQ 4 h
Method: In order to determine the inhibitory activities of the test-ligand, RAW 264.7 cells were pretreated with each candidate compound for 1 hour, then treated with Pam3CSK4 (synthetic triacyl lipopeptide; TLR1/2, Invitrogen), FSL-1 (synthetic diacyl lipoprotein, TLR2/6, 100 ng/ml), lipopolysaccharide (LPS, TLR4, Sigma Aldrich), imiquimod (IMQ, TLR7, Invitrogen), and ODN2395 (type C CpG repeat motif DNA oligo(5′-[…]-3), TLR9, Bioneer) ligand for 4 hours, and treated with poly I:C (I:C repeat motif double-stranded RNA, TLR3, Invitrogen) and TL8-506 (TLR8, Invitrogen) showing delayed reactivity for 24 hours. After activation of TLR, the supernatant was diluted in an appropriate ratio so as to measure within the standard dose range, transferred to a pre-coated 96-well assay plate, and then treated with mouse TNF-alpha secretion level in accordance with the manufacturer's instructions using a mouse-TNF-alpha ELISA-kit (Invitrogen).
In order to plot the concentration-dependent LC50 curves, treatment with the SK series ligands at different concentrations up to 200 μM (the highest concentration that could be treated within the level of 0.5% DMSO) was performed. Then, cell viability and toxicity response upon treatment with ligands were analyzed by MTT as described in Examples 1-3. Cell viability in each plot was normalized from negative control (100%; no treatment) to positive control (highest concentration of test-ligand), and LC50 was determined by non-linear regression (Graph Pad Prism 7.0). In order to plot the concentration-dependent IC50 curves, pre-treatment with the SK series ligands was performed at different concentrations up to 50 μM (twice the initial concentration). Cell responses mediated by TLR7 and TLR9 (levels of TNF-α secretion) were analyzed by ELISA as described in Examples 1-4. The cytokine level in each plot was normalized from negative control (non-treated) to positive control (treatment with ligand), and IC50 was determined by non-linear regression (Graph Pad Prism 7.0).
In order to select potential inhibitory molecules against TLR3/TLR7/TLR8/TLR9 activation, first, MTT (3-(4,5-dimethylthiazol-2-yl)-2,5-diphenyltetrazolium bromide) cell viability assay (FIG. 7) was performed upon treatment with a set of ligands from SK21 to SK82 at a concentration of 20 μM and the inhibitory activity thereof was evaluated by an ELISA assay to monitor the level of TNF-α secretion in RAW 264.7 cells. The experimental ligands from SK21 to SK82 were administered at 0.5 μM or 2 μM to the RAW 264.7 cells and stimulated with Imiquimod (TLR7, 1 μg/ml) and OND2395 (TLR9, 0.5 μM).

Structure (SMILES)	inhibitory activity against TLR7 (level of TNF-α secretion)	inhibitory activity against TLR7 activation (TNF-α secretion)
COC(=O)c1ccc2c(c1)c1c(N)c3c(nc1n2CCCN(C)C)CCCC3 [SK64, Methyl 11-amino-6-(3-(dimethylamino)propyl)-2,3,4,6-tetrahydro-1H-indolo[2,3-b]quinolin-9-carboxylate]	significant inhibitory activity; also recorded: significantly reduced	–
Cc1c(C)n(CCN(C)C)c2nc3c(c(N)c12)CCCCC3 [SK01, 1-(2-(dimethylamino)ethyl)-2,3-dimethyl-1,5,6,7,8,9-hexahydrocyclohepta[b]pyrrolo[3,2-e]pyridin-4-amine]	–	inhibitory ability for TLR7/TLR9 activation was verified; also recorded: specifically inhibit
Cc1ccc2c(c1)c1c(N)c3c(nc1n2CCCN(C)C)CCCC3 [SK58, 6-(3-(dimethylamino)propyl)-9-methyl-2,3,4,6-tetrahydro-1H-indolo[2,3-b]quinolin-11-amine]	significant inhibitory activity; also recorded: significantly reduced	–
Cc1c(C)n(CCCN(C)C)c2nc3c(c(N)c12)CCCCC3 [SK16, 1-(3-(dimethylamino)propyl)-2,3-dimethyl-1,5,6,7,8,9-hexahydrocyclohepta[b]pyrrolo[3,2-e]pyridin-4-amine]	–	potent inhibitor; also recorded: best inhibitory activity among the structural analogues of SK01; also recorded: specifically inhibit
Cc1cc2c(N)c3c(nc2n1CCCN(C)C)CCCCCC3 [SK41, 1-(3-(dimethylamino)propyl)-2-methyl-5,6,7,8,9,10-hexahydro-1H-cycloocta[b]pyrrolo[3,2-e]pyridin-4-amine]	significant inhibitory activity; also recorded: significantly reduced	–
COc1ccc2c(c1)c1c(N)c3c(nc1n2CCCN(C)C)CCCC3 [SK50, 6-(3-(dimethylamino)propyl)-9-methoxy-2,3,4,6-tetrahydro-1H-indolo[2,3-b]quinolin-11-amine]	significant inhibitory activity; also recorded: significantly reduced	–
